Laboratory results reported in ChEMBL document CHEMBL1151260, “Expanding the ChemGPS chemical space with natural products” (J Nat Prod, 2005).
pIC50: −log10 of the molar value.

Key:
[1] = biological target: T1, Prostaglandin G/H synthase 1 (Homo sapiens, UniProt P23219)
J774.A1 [2] = test: Inhibition of COX2 protein expression in mouse J774A1 cells at 5 uM; format: functional
RAW264.7 = test: Inhibition of COX2 protein expression in mouse RAW264.7 cells; format: functional, cell-based
[3] = biological target: T1, Prostaglandin G/H synthase 1; test: Inhibition of COX1 at 1000 uM
[4] = biological target: T1, Prostaglandin G/H synthase 1; test: Inhibition of COX1 at 2.5 ug/mL
[5] = biological target: T2, Prostaglandin G/H synthase 2 (Homo sapiens) (UniProt P35354); test: Inhibition of COX2 at 0.1 ug/mL
T2 sequence (whole entry): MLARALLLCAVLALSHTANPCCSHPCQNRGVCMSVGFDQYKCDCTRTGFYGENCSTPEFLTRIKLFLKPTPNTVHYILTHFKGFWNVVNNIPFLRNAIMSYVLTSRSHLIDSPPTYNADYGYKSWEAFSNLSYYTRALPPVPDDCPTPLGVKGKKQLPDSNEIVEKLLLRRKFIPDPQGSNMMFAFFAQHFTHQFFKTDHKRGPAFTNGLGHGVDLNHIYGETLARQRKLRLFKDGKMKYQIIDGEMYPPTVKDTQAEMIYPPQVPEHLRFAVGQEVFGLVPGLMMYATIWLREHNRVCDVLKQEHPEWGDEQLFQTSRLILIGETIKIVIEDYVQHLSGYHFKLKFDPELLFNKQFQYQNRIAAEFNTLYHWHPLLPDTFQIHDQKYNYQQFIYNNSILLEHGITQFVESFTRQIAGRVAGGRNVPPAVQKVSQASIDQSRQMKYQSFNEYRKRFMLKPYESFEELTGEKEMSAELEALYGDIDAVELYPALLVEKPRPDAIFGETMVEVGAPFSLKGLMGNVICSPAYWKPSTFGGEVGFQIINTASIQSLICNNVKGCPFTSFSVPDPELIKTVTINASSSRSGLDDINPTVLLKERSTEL

J774.A1 [6] = test: Inhibition of COX2 protein expression in mouse J774A1 cells; format: functional, cell-based
MCF-10A = test: Inhibition of COX2 protein expression in human MCF10A cells; format: functional, cell-based
[7] = biological target: T1, Prostaglandin G/H synthase 1; test: Inhibition of COX1 at 200 ug/mL
[8] = biological target: T2, Prostaglandin G/H synthase 2 (Homo sapiens); test: Inhibition of COX2 at 327 uM
[9] = biological target: T2, Prostaglandin G/H synthase 2 (Homo sapiens); test: Inhibition of COX2 at 2.5 ug/mL
DLD-1 = test: Inhibition of COX2 mRNA expression in human DLD1 cells; format: functional, cell-based
[10] = biological target: T2, Prostaglandin G/H synthase 2 (Homo sapiens); test: Inhibition of COX2 at 170 uM
[11] = biological target: T2, Prostaglandin G/H synthase 2 (Homo sapiens); test: Inhibition of COX2 at 25 uM
[12] = biological target: T1, Prostaglandin G/H synthase 1; test: Inhibition of COX1 at 30 ug/mL
[13] = biological target: T2, Prostaglandin G/H synthase 2 (Homo sapiens); test: Inhibition of COX2 at 3.13 uM
[14] = biological target: T1, Prostaglandin G/H synthase 1; conditions: 180 ug/mL
Description: Inhibition of COX1 at 180 ug/mL

[15] = biological target: T3, Prostaglandin G/H synthase 2 (Homo sapiens, UniProt P35354); test: Inhibition of COX2 at 1000 uM
T3 sequence (P35354 whole entry): T2 sequence (whole entry)

[16] = biological target: T2, Prostaglandin G/H synthase 2 (Homo sapiens); test: Inhibition of COX2 at 313 uM
SKGT4 [17] = test: Inhibition of COX2 protein expression in human SKGT4 cells; format: functional, cell-based
SKGT4 [18] = test: Inhibition of COX2 mRNA expression in human SKGT4 cells; format: functional, cell-based

T1 sequence (P23219 whole entry): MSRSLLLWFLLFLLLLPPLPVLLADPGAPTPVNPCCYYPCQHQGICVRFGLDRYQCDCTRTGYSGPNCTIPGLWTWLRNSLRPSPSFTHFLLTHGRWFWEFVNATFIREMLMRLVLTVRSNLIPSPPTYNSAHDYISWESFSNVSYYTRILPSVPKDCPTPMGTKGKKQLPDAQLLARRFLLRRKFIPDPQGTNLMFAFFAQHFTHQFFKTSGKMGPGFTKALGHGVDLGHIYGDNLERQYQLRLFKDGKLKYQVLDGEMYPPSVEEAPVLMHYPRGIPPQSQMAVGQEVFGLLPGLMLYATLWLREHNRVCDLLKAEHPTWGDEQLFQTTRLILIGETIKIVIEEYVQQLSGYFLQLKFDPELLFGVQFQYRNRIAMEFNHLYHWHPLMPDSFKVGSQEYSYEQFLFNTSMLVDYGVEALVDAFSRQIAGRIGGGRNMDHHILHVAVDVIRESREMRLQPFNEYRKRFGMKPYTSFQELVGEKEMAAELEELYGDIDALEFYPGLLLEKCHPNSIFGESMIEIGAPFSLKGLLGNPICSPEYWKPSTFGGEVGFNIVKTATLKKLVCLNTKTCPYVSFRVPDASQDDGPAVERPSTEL

Compound	pIC50 [1]	further results
CC(C)=CCC/C(C)=C\CC1=CC(=O)C=C(C)C1=O	4.19	–
CC(C)=CCc1c(O)ccc2ccc(=O)oc12 [OSTHENOL]	4.19	–
CC1(C)CC[C@]2(C)CC[C@]3(C)[C@H]4CC=C5[C@@H](CCC(=O)C5(C)C)[C@]4(C)CC[C@@]3(C)[C@@H]2C1 [GLUTINONE]	5.44	–
C=CCc1ccc(OC(C)=O)c(OC)c1 [EUGENYL ACETATE]	5.52	–
COc1ccc2cc1Oc1ccc(cc1)C[C@H]1c3cc(c(OC)cc3CCN1C)Oc1c(O)c(OC)cc3c1[C@H](C2)N(C)CC3 [FANGCHINOLINE]	3.89	–
CC(C)=CCc1c(-c2ccc(O)cc2O)oc2c(CC=C(C)C)c(O)cc(O)c2c1=O [KUWANON C]	4.21	–
O=c1cc(-c2ccc(O)cc2)oc2cc(O)cc(O)c12 [APIGENIN]	–	inhibition at 5 µM (J774.A1 [2]): 64%; pIC50 (RAW264.7): 6.30; inhibition [3]: 65%
O=c1cc(-c2ccc(O)c(O)c2)oc2cc(O)cc(O)c12	–	inhibition [4]: 75%
C=C1C(=O)C(O)=C[C@@H]2[C@]3(C)CC[C@](C)(C(=O)CO)C[C@@H]3CC[C@]12C [AKENDO 3]	4.47	–
CC(C)[C@@H]1CC[C@@H](C)C[C@H]1O	–	inhibition [5]: 60%
CC(/C=C/C=C(\C)C(=O)O)=C\C=C\C=C(C)\C=C\C=C(/C)C(=O)O [TRANSCROCETIN]	4.55	–
COc1cc(-c2cc(=O)c3cc(OC)c(OC)cc3o2)ccc1O	–	inhibition [3]: 37%
O=C(O)[C@H]1O[C@@H](Oc2c(-c3cc(O)c(O)c(O)c3)oc3cc(O)cc(O)c3c2=O)[C@H](O)[C@@H](O)[C@@H]1O	5.00	–
O=C1C[C@@H](c2ccc(O)cc2)Oc2cc(O)cc(O)c21	–	Activity (J774.A1 [6]): Dose-dependent effect
O=C(CCc1ccc(O)c(O)c1)C[C@@H](O)CCc1ccc(O)c(O)c1	–	Activity (MCF-10A): Dose-dependent effect
C=CCc1ccc(O)c(OC)c1 [EUGENOL]	4.96	inhibition [3]: 97%
COc1cc(O[C@@H]2O[C@H](CO)[C@@H](O)[C@H](O)[C@H]2O)cc2oc(-c3ccc(O)cc3)cc(=O)c12	–	inhibition [7]: 13%
Oc1cc(O)c2c(c1)O[C@H](c1cc(O)c(O)c(O)c1)[C@@H](O)C2 [GALLOCATECHIN]	4.02	inhibition [8]: 46%
C=C[C@@H](O)C#CC#C[C@@H](O)/C=C\CCCCCCC [FALCARINDIOL]	4.18	–
Oc1cc(O)c2c(c1)O[C@H](c1ccc(O)c(O)c1)[C@@H](O)C2 [CIANIDANOL]	4.10	–

Compound	pIC50 [1]	further results
C[C@@H]1CC(=O)[C@]2(CO)[C@H](CCC[C@]23CO3)[C@@]12C[C@@H](c1ccoc1)OC2=O [GNAPHALIN]	4.40	–
C=C1CCC[C@]2(C)CC[C@@H]([C@@](C)(O)CO)C[C@]12O	5.89	–
CC/C=C/C/C=C/C/C=C/C/C=C/CC/C=C/COCC(=O)O	4.30	–
Cc1ccc(C(C)C)cc1O [CARVACROL]	5.40	–
OC[C@H]1O[C@@H](OCCc2ccc(O)cc2)[C@H](O)[C@@H](O)[C@@H]1O [SALIDROSIDE]	4.14	–
CC(=O)[C@H]1CC[C@]2(C)CC[C@@H]([C@](C)(O)CO)C[C@]12O [LUCINONE]	4.37	–
CC(C)=CCC12Oc3cc(O)c(C4=CC5(C)CC(C4)c4ccc(O)cc4O5)c(O)c3C(=O)C1(O)Oc1cc(O)ccc12 (stereo not given) [SANGGENON B]	4.38	–
C=C1CC/C=C(\C)C(=O)[C@H](OC(C)=O)[C@@H]2[C@@H]1CC2(C)C [BUDDLEDIN A]	4.85	–
C=C[C@@H](O)C#CC#C[C@@H](O)/C=C/CCCCCCCC(=O)OC(C)=O	4.14	–
O=c1c(O)c(-c2ccc(O)c(O)c2)oc2cc(O)cc(O)c12	–	inhibition [4]: 90%; inhibition [9]: 40%; Activity (DLD-1): Dose-dependent effect
COc1cc(-c2cc(=O)c3c(O)c(OC)c(OC)c(O)c3o2)ccc1O	–	inhibition [3]: 37%
COc1c(O)cc([C@H]2Oc3c(c(O)cc(O)c3[C@H]3c4c(O)cc(O)cc4O[C@H](c4ccc(O)cc4)[C@@H]3O)C[C@H]2O)cc1O [OURATEAPROANTHOCYANIDIN A]	3.86	inhibition [10]: 37%
O=C(O[C@@H]1Cc2c(O)cc(O)cc2O[C@@H]1c1cc(O)c(O)c(O)c1)c1cc(O)c(O)c(O)c1	–	inhibition [11]: 13%; inhibition [12]: 51%
COc1c(O)cc([C@H]2Oc3cc(O)cc(O)c3C[C@H]2O)cc1O	5.48	inhibition [13]: 23%
O=c1ccc2ccc(O)c(O)c2o1 [DAPHNETIN]	3.85	–
COc1cc(CNC(=O)CCCC/C=C/C(C)C)ccc1O [CAPSAICIN]	5.42	–
COc1cc2ccc(=O)oc2c(O)c1O [FRAXETIN]	3.28	–
CC(=O)Oc1ccccc1C(=O)O	–	inhibition [14]: 52%; inhibition [3]: 46%
C=C(C)C(CC=C(C)C)Cc1c(O)cc(OC)c2c1O[C@H](c1ccc(O)cc1O)CC2=O (stereo not given in full) [KURARINONE]	6.22	–
COc1cc2oc(-c3ccc(O)cc3)cc(=O)c2c(O)c1OC [CIRSIMARITIN]	–	IC50 [15]: 6%

Compound	pIC50 [1]	further results
CC/C=C/C/C=C/C/C=C/C/C=C/CCSCCCC(=O)O	4.09	–
C=C(C)[C@H](CC=C(C)C)Cc1c(O)cc(OC)c(C(=O)/C=C/c2ccc(O)cc2O)c1O [KURAIDIN]	6.22	–
CCCCC/C=C\C/C=C\CCCCCCCC(=O)O [LINOLEIC ACID]	4.89	–
O=c1c(-c2ccc(O)cc2)coc2cc(O)cc(O)c12 [GENISTEIN]	4.10	–
Oc1cc(O)c2c(c1)O[C@H](c1ccc(O)c(O)c1)[C@H](O)C2 [(-)-EPICATECHIN]	–	pIC50 (DLD-1): 3.38
CC(C)=CCC12Oc3cc(O)ccc3C1(O)Oc1cc(O)c([C@H]3C=C(C)C[C@@H](c4ccc(O)cc4O)[C@@H]3C(=O)c3ccc(O)cc3O)c(O)c1C2=O (stereo not given in full) [SANGGENON D]	4.23	–
C[C@@H]1O[C@@H](O[C@H]2[C@H](Oc3cc(O)c4c(=O)cc(-c5ccc(O)cc5)oc4c3)O[C@H](CO)[C@@H](O)[C@@H]2O)[C@H](O)[C@H](O)[C@H]1O	–	inhibition [9]: 20%
C=C1CCC[C@]2(C)CC[C@@H]([C@@](C)(O)CO)C[C@@]12O [KUTDTRIOL]	4.41	–
O=c1c(O[C@@H]2O[C@H](CO)[C@@H](O)[C@H](O)[C@H]2O)c(-c2ccc(O)c(O)c2)oc2cc(O)cc(O)c12	–	inhibition [9]: 25%
C[C@@H]1OC(O[C@@H]2[C@@H](O)[C@H](OCCc3ccc(O)c(O)c3)O[C@H](CO[C@@H]3OC[C@](O)(CO)[C@H]3O)[C@H]2OC(=O)/C=C/c2ccc(O)c(O)c2)[C@H](O[C@@H]2OC[C@H](O)[C@H](O)[C@H]2O)[C@H](O)[C@H]1O (stereo not given in full) [BALLOTETROSIDE]	3.00	–
O=c1c(O)c(-c2ccccc2)oc2cc(O)cc(O)c12 [GALANGIN]	–	inhibition at 5 µM (J774.A1 [2]): 59%
COc1cc(/C=C/CO)ccc1O[C@@H]1O[C@H](CO)[C@@H](O)[C@H](O)[C@H]1O [CONIFERIN]	4.12	–
CC(C)=CCc1c([C@@H]2CCc3ccc(O)cc3O2)cc2c(c1O)OC(C)(C)C=C2 [KAZINOL B]	< 4.00	–
COc1c(O)cc([C@@H]2Oc3cc(O)cc(O)c3C[C@H]2O)cc1O	4.92	inhibition [16]: 61%
O=C(/C=C/c1ccc(O)c(O)c1)O[C@H](Cc1ccc(O)c(O)c1)C(=O)O	–	inhibition [3]: 58%
COc1cc(/C=C/C(=O)CC(=O)/C=C/c2ccc(O)c(OC)c2)ccc1O	–	Activity (SKGT4 [17]): Dose-dependent effect; Activity (SKGT4 [18]): Dose-dependent effect
O=C(/C=C/c1ccc(O)c(O)c1)OCCc1ccccc1 [CAFFEIC ACID PHENETHYL ESTER]	4.24	–
COc1cc(/C=C/CO)cc(OC)c1O[C@@H]1O[C@H](CO)[C@@H](O)[C@H](O)[C@H]1O [SYRINGIN]	4.44	–
